Reference: patent publication US6448430B1, “Process for the preparation of aryl carboxylate esters” (priority 1999, dated 2002)

Test: Solubility of NOBS in selected solvents
Assay type: physicochemical
Conditions: TFA versus acetic acid; ambient temperature
Excerpt: The solvent properties of TFA are unique and highly advantageous in the synthesis of phenolsulfonate esters. […] It is notable that the only solvent in which NOBS is more soluble than water is TFA. I have found no better solvent for NOBS than TFA. This is surprising. […] It is likely that hydrogen bonding in TFA facilitates the solvation of sulfonate anions but it is notable, in contrast, that such effects are much weaker in acetic acid. Furthermore, while it is known in the art that dimethyl sulfoxide (DMSO) and dimethylformamide (DMF) are relatively good solvents for benzenesulfonate esters they are much weaker solvents than TFA and because TFA has a much lower boiling point than these dipolar aprotic solvents it is the only good solvent for benzenesulfonate esters which can be readily stripped from product solutions and then purified and recycled with relative ease.

Amount of NOBS dissolved by TFA relative to the amount soluble in acetic acid: more than ten times
SMILES: CCCCCCCCC(=O)Oc1ccc(S(=O)(=O)[O-])cc1.[Na+] [NOBS, sodium 4-(nonanoyloxy)benzene sulfonate]
